This is an account of results in patent US6083974A, “Benzothiophenecarboxamide derivatives and PGD2 antagonists comprising them” (Shionogi & Co., Ltd., priority 1996, dated 2000).

Test [1] concerns the target T1, PGD2 receptor (Homo sapiens, UniProt Q13258).
T1 construct: A suspension adjusted to contain platelet at a final concentration of; endogenous in cells; host or cells: washed human platelets from peripheral blood of a healthy volunteer
T1 sequence (Q13258 1-359): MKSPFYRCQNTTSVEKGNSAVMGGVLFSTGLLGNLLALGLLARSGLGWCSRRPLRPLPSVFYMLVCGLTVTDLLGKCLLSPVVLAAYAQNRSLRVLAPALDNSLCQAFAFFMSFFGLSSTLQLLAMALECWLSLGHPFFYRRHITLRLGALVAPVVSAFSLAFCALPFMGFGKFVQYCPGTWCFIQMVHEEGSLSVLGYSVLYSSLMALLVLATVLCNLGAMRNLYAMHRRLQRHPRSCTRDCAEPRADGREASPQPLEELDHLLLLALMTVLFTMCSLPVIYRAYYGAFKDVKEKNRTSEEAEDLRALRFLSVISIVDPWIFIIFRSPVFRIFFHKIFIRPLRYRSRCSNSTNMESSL
Put plainly: Binding to PGD2 Receptor (inhibition of [3H]PGD2 binding to human platelet membrane fraction). As to conditions: human platelet membrane fraction (0.1 mg), 5 nM [3H]PGD2, pH 7.4, 4° C., 90 min. Here is the method:
(1) Preparation of Human Platelet Membrane Fraction
Blood sample was obtained using a plastic syringe containing 3.8% sodium citrate from the vein of healthy volunteers (adult male and female), put into a plastic test tube and mixed gently by rotation. The sample was then centrifuged at 1800 rpm, 10 min at room temperature, and the supernatant containing PRP (platelet-rich plasma) was collected. The PRP was recentrifuged at2300 rpm, 22 min at room temperature to obtain platelets. The platelets were homogenized using a homogenizer (Ultra-Turrax) followed by centrifugation 3 times at 20,000 rpm, 10 min at 4° C. to obtain a platelet membrane fraction. After protein determination, the membrane fraction was adjusted to 2 mg/ml and preserved in a refrigerator at -80° C. until use.
(2) Binding to PGD2 Receptor
To a binding-reaction solution (50 mM Tris/HCl, pH 7.4, 5 mM MgCl2) (0.2 ml) were added to the human platelet membrane fraction (0.1 mg) and 5 nM [^3 H]PGD2 (115 Ci/mmol), and reacted at 4° C. for 90 min. After the reaction completed, the reaction mixture was filtered through a glass fiber filter paper, washed several times with cooled saline, and measured the radioactivity retained on the filter paper. The specific binding was calculated by subtracting the non-specific binding (the binding in the presence of 10 μM PGD2) from the total binding. The inhibitory activity of each compound was expressed as the concentration required for 50% inhibition (IC50), which was determined by depicting a substitution curve by plotting the binding ratio (%) in the presence of each compound, where the binding ratio in the absence of a test compound is 100%.

Test [2] deals with T1, PGD2 receptor. Put plainly: Antagonistic activity against PGD2 receptor using human platelet (inhibition of PGD2-induced cAMP increase). Format: cell-based. As to conditions: human washed platelets, 0.1 μM PGD2, 3-isobutyl-1-methylxanthine 0.5 mM, 37° C.; read-out: IC50, inhibition of cAMP increased by PGD2. Here is the method: Evaluation of Antagonistic Activity Against PGD2 Receptor Using Human Platelet
Peripheral blood was obtained from a healthy volunteer using a syringe in which 1/9 volume of citric acid/dextrose solution has been previously added. The syringe was subjected to centrifugation at 180 g for 10 min to obtain the supernatant (PRP:platelet rich plasma). the resultant PRP was washed 3 times with a washing buffer and the number of platelet was counted with a micro cell counter. A suspension adjusted to contain platelet at a final concentration of 5×10^8 /ml was warmed at 37° C., and then subjected to the pre-treatment with 3-isobutyl-1-methylxanthine (0.5 mM) for 5 min. To the suspension was added a test compound diluted at various concentration. Ten-minute later, the reaction was induced by the addition of 0.1 μM PGD2 and , 2-minute later, stopped by the addition of hydrochloric acid. The platelet was destroyed with an ultrasonic homogenizer. After centrifugation, the cAMP in the supernatant was determined by radioummunoassay. PGD2 receptor antagonism of a drug was evaluated as follows. The inhibition rate regarding cAMP increased by the addition of PGD2 was determined at individual concentration, and then the concentration of the drug required for 50% inhibition (IC50) was calculated.

The test system of the next test is Hartley male guinea pig. Put plainly: Nasal blocking model (intranasal pressure after OVA antigen exposure). The test is classed as in vivo. As to conditions: oral 60 min before 3% OVA antigen exposure, dose not given. The method, then: Experiment Using Nasal Blocking Model
The method used for measuring the intranasal pressure for evaluating the anti-nasal blockage using guinea pigs is described below.
A 1% ovalbumin (OVA) solution was treated with an ultrasonic nebulizer to obtain an aerosol. Hartley male guinea pig was sensitized by inhaling twice the aerosol for 10 min at one-week interval. Seven-day after the sensitization, the guinea pig was exposed to an antigen to initiate the reaction. Briefly, the trachea was incised under the anesthesia with pentobarbital (30 mg/kg, i.p.) and cannulas were inserted at the pulmonary side was connected with an artificial respirator that provides 4 ml air 60 times/min. After arresting the spontaneous respiration of the guinea pig with Gallamin (2 mg/kg, i.v.), air was supplied to the snout side with an artificial respirator at the frequency of 70 times/min, and the flow rate of 4 ml air/time, and the atmospheric pressure required for the aeration was measured by the use of a transducer fitted at the branch. The measurement was used as a parameter of the nasal cavity resistance. The exposure of an antigen was carried out by generating aerosol of 3% OVA solution for 3 min between the respirator and the nasal cavity cannula. The test drug was administered orally 60 min before the antigen exposure. […]

A further test concerns eosinophils. Put plainly: Infiltration of eosinophils in the nasal cavity by an antigen challenge. The test is classed as in vivo. To be noted: guinea pig, oral 1, 3 and 10 mg/kg, 1 hr before antigen challenge; marked columns not given. Here is the method: Activity on Infiltration of Eosionophils in the Nasal Cavity by an Antigen Challenge
To a Hartley male guinea pig was injected intraperitoneally cyclophosphamide (30 mg/kg), after 2 day 1 ml of suspension containing 1 mg of ovalbumin (OVA) and 100 mg of aluminum hydroxide was injected intraperitoneally. After 3 weeks, 1 ml of mixture of OVA (10 μg) and aluminum hydroxide (100 mg) was intraperitoneally injected as additional immunization to sensitize systemically. After the lapse of 3 weeks, local sensitization, each 10 μl of 1% OVA solution was dripped in both nasal cavities four times at 2-4 day intervals. After 5-7 days from the final sensitization, nasal antigen challenge was performed by dripping 10 μl of 1% OVA solution to the guinea pigs in the both nasal cavity. Five hours after nasal challenge, the guinea pigs were exsanguinated under the anesthetization. The nasal airways were washed by infusing 10 ml of saline, and the washings were collected. The washing were centrifuged, the cell pellets were resuspended in 100 μl of saline, and the total cells were counted by the Turk stain. Then smear samples were prepared, and the cells were classified after the May-Grunwald-Giemsa stain. The eosinophil number was determined by multiplying the rate of eosinophils with the total cells. […]

In turn, `CC1(C)[C@H]2C[C@H](C/C=C\CCCC(=O)O)[C@@H](NC(=O)c3csc4ccc(Br)cc34)[C@@H]1C2` [IA-a-2] registered an IC50 on PGD2 receptor [1] of 3.3 nM. For the compound `CC1(C)[C@H]2C[C@H](C/C=C\CCCC(=O)O)[C@@H](NC(=O)c3csc4ccc(O)cc34)[C@@H]1C2` [IA-a-5], the IC50 is 0.4 nM on PGD2 receptor [1] and 1.3 nM on PGD2 receptor [2]. Moreover, the “Inhibitory Rate, intranasal pressure AUC for 30 min vs vehicle” value with Hartley male guinea pig stood at 96%. The “inhibition of infiltration of eosinophils in the nasal cavity, significance versus vehicle (FIG. 1)” value in the test with eosinophils is “significantly different from vehicle at p<0.01”. Take `CC1(C)[C@H]2C[C@H](C/C=C\CCCC(=O)O)[C@@H](NC(=O)c3csc4cc(O)ccc34)[C@@H]1C2` [IA-a-7]: the IC50 on PGD2 receptor [1] stood at 1.3 nM; on PGD2 receptor [2] it was 2.8 nM. The corresponding values for `CC(=O)Oc1ccc2scc(C(=O)N[C@@H]3[C@@H](C/C=C\CCCC(=O)O)C[C@H]4C[C@@H]3C4(C)C)c2c1` [IA-a-9] are 6.5 nM and 0.21 nM.

On to `CC1(C)[C@H]2C[C@H](C/C=C/CCCC(=O)O)[C@@H](NC(=O)c3csc4ccc(O)cc34)[C@@H]1C2` [IA-a-17], for which, on PGD2 receptor [2], the IC50 amounted to 28 nM. The same measure, in the same setting: for `CC1(C)[C@H]2C[C@@H](C/C=C\CCCC(=O)O)[C@@H](NC(=O)c3csc4ccc(O)cc34)[C@@H]1C2` [IA-c-1] the value was 55 nM; for `CC1(C)[C@H]2C[C@@H](C/C=C/CCCC(=O)O)[C@@H](NC(=O)c3csc4ccc(O)cc34)[C@@H]1C2` [IA-c-2], 61 nM.

Consider `CC1(C)[C@H]2C[C@H](NC(=O)c3csc4ccccc34)[C@@H](C/C=C\CCCC(=O)O)[C@@H]1C2` [IB-a'-1], for which the IC50 at PGD2 receptor [2] was 41 nM.

As to `CC1(C)[C@H]2C[C@@H](NC(=O)c3csc4ccc(O)cc34)[C@H](C/C=C\CCCC(=O)O)[C@@H]1C2` [IB-b'-3], the IC50 on PGD2 receptor [2] is 57 nM.

A word on the IC50: it is the concentration needed to halve the response being measured.
